Experimental data from article PMC5145814 (Molecular Cell, 2016).

Key:
RFS-1/RIP-1 = target: T1, RFS-1/RIP-1 (Caenorhabditis elegans, UniProt P34348); experiment: stopped-flow Cy3 fluorescence, binding to RAD-51-ssDNA filament […]' end; assay type: biochemical; settings: 25°C; 50 nM RFS-1/RIP-1 pre-incubated with ADP; 1 μM RAD-51, 15 nM 5'-Cy3-43-mer
T1 sequence (P34348 1-245): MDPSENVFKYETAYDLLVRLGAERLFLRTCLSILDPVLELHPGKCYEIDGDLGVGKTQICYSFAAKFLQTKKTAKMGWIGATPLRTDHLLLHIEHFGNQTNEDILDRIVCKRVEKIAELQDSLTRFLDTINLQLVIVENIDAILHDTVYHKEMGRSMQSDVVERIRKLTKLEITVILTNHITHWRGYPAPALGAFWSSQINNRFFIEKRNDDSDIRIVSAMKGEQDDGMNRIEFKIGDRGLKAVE
T1 sequence (Q21621 1-209 partner): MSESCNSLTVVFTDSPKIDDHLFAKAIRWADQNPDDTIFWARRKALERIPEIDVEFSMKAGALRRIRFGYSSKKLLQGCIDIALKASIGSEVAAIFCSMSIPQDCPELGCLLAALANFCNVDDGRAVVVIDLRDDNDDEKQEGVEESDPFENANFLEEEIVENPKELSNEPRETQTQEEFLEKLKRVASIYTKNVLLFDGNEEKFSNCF

RAD-51 = target: T2, RAD-51 (Caenorhabditis elegans, UniProt G5EGG8); experiment: fluorescence titration, fixed TNP-ATP concentration; assay type: binding; settings: 25°C; fluorescent ATP analog; labelled compound
T2 sequence (G5EGG8 1-357): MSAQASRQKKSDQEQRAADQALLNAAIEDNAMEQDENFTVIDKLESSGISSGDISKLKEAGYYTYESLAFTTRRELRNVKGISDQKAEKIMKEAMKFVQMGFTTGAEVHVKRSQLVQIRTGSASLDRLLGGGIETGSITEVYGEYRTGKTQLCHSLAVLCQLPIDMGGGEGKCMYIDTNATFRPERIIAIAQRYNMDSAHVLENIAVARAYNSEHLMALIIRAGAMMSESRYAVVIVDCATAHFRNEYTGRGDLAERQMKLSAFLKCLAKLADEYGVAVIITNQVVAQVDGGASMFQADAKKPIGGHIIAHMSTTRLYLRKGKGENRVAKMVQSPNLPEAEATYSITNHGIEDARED

For Nc1ncnc2c1ncn2[C@@H]1O[C@H](COP(=O)(O)OP(=O)(O)O)[C@@H](O)[C@H]1O [ADP], the “Δ Cy3 fluorescence” value (RFS-1/RIP-1) was “RFS-1/RIP-1 was pre-incubated with ADP (Figures 5C and 5D)”.

TNP-ATP was tested, and the Kd (RAD-51) was roughly 3.5 µM.
